This passage reports inhibition results from article PMC7240875 (Integrative Cancer Therapies, 2018).

Each structure is given as a SMILES string.

Holding throughout (format): cell-based
Test [1] concerns the target T1, NAD(P)H:quinone oxidoreductase-1 (NQO1) (Homo sapiens, UniProt P15559). Nature of the test: NQO1 activity. The settings on record: KKU100, read-out: % inhibition at 4.55 μM.
Test [2] deals with T1, NAD(P)H:quinone oxidoreductase-1 (NQO1). Nature of the test: single-concentration NQO1 activity screen. The settings on record: read-out: % inhibition at 4.55 μM.
The target is the same in test [3]. Nature of the test: NQO1 activity. The settings on record: KKU100, read-out: % inhibition at 4.55 μM. This is another data set of the same source.

T1 sequence (P15559 whole entry): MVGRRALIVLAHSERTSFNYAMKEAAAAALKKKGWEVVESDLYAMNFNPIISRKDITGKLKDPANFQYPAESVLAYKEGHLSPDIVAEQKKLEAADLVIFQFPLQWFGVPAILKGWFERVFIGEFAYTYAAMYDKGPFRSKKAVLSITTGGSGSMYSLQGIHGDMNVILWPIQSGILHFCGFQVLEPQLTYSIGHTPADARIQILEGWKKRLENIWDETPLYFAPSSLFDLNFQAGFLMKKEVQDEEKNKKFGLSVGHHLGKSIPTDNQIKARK

Usually inhibition stands for the percentage by which the read-out fell short of the control. `O=c1ccc2cc(O)c(O)cc2o1` [aesculetin]: the inhibition at 4.55 µM in test [1] worked out at 34.9%.
On the same count and under the same terms, the value for `O=c1ccc2ccccc2o1` [coumarin] was 41.8%.
Take `O=c1cc(-c2ccc(O)c(O)c2)oc2cc(O)cc(O)c12` [luteolin]: the inhibition at 4.55 µM in test [2] was found to be 55%.
As for `COc1cc2ccc(=O)oc2cc1O` [scopoletin], the inhibition at 4.55 µM in test [3] worked out at 77.4%.
`O=c1ccc2ccc(O)cc2o1` [umbelliferone]: the inhibition at 4.55 µM in test [3] worked out at 63.5%.
